The values below come from ChEMBL document CHEMBL5465560, “Selectivity Literature for EUbOPEN Chemogenomic Library” (2024).

Experiment [1] has as its target T1, Dual specificity mitogen-activated protein kinase kinase 3 (Homo sapiens) (UniProt P46734).
T1 sequence (whole entry): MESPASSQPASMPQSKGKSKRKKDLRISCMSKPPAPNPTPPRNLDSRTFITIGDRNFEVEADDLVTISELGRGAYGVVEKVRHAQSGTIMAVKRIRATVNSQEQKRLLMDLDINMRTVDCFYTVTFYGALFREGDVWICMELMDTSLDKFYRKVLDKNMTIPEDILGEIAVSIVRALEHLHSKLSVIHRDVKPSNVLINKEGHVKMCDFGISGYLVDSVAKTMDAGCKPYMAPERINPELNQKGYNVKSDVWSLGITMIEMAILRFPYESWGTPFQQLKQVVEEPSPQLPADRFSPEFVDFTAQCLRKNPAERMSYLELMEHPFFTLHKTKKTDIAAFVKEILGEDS
Kind of experiment: Selectivity interaction (LanthaScreen Eu Kinase Binding Assay) EUB0001632a MAP2K3. The settings on record: at 10 µM. A general note: TR-FRET usually uses a lanthanide donor and a delayed reading to cut background.

Experiment [2] deals with T2, Ankyrin repeat and protein kinase domain-containing protein 1 (Homo sapiens) (UniProt Q8NFD2).
T2 sequence (whole entry): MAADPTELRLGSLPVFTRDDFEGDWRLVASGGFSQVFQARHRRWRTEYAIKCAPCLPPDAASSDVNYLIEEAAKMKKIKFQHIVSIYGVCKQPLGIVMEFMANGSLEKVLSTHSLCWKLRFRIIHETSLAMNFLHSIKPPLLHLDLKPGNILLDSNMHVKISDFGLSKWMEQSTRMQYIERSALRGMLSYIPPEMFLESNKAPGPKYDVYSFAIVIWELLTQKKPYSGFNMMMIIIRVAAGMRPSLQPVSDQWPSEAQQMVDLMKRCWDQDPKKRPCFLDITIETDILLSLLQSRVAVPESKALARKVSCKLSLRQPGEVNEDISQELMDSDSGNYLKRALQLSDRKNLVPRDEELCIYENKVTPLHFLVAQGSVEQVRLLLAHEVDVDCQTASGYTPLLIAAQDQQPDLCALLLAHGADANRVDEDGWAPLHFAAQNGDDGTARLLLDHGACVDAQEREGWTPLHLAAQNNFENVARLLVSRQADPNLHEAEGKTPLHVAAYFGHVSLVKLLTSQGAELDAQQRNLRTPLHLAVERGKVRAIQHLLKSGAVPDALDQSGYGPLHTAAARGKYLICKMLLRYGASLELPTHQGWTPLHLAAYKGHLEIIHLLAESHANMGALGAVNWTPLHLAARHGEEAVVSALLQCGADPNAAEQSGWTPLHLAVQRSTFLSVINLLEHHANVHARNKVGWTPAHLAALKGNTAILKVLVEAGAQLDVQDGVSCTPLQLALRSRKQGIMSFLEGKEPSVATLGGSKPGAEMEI
The experiment is described as follows: Selectivity interaction (Ambit KINOMEscan and KiNATiv profiling in Jurkat cells) EUB0000090b ANKK1. The format is cell-based. The following applies: at 1 µM.

Experiment [3] addresses Activated CDC42 kinase 1 (Homo sapiens, UniProt Q07912). Kind of experiment: Selectivity interaction (KinomeScan (DiscoverX)) EUB0000607a TNK2. The settings on record: at 10 µM.
The test system of experiment [4] is T3, Receptor-type tyrosine-protein kinase FLT3 (Homo sapiens), P36888 [D835H].
T3 sequence (whole entry): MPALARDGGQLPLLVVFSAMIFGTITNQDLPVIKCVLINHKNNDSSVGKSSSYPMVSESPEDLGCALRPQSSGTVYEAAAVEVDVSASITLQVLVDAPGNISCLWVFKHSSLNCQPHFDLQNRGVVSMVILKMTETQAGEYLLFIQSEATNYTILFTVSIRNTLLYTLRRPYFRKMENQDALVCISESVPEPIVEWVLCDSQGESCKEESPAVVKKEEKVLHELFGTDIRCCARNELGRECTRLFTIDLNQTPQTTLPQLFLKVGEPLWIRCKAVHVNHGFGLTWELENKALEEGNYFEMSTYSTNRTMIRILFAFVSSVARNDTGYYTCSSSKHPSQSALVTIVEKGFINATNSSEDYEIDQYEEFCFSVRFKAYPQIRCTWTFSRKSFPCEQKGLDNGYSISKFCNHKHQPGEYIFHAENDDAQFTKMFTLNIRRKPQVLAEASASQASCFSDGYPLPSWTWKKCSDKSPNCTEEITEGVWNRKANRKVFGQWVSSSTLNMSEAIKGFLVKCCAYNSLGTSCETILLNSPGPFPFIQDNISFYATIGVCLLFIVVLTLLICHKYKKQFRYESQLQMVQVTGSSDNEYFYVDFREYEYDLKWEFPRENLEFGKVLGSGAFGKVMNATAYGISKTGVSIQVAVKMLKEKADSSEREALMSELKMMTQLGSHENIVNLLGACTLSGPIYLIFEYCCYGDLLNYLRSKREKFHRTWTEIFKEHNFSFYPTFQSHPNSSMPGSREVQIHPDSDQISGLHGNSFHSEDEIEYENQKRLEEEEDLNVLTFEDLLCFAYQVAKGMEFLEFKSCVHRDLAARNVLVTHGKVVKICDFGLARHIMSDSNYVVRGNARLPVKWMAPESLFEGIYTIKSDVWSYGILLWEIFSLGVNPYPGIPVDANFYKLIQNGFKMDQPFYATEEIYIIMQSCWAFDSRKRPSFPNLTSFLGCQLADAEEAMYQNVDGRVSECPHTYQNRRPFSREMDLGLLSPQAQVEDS
The following applies: at 10 µM.

Experiment [5] concerns the target Receptor-interacting serine/threonine-protein kinase 2 (Homo sapiens, UniProt O43353). The settings on record: at 10 µM.
The test system of experiment [6] is Tyrosine-protein kinase ABL1 (Homo sapiens), P00519 [F317I]. Kind of experiment: Selectivity interaction (KinomeScan (DiscoverX)) EUB0000666a ABL1. The following applies: at 10 µM.
Experiment [7] deals with Cyclin-dependent kinase 2 (Homo sapiens, UniProt P24941). Kind of experiment: Selectivity interaction (KinomeScan (DiscoverX)) EUB0000655a CDK2. The following applies: at 10 µM.
Experiment [8] has as its target Serine/threonine-protein kinase SIK1 (Homo sapiens) (UniProt P57059). Kind of experiment: Selectivity interaction (KinomeScan (DiscoverX)) EUB0001619a SIK1. The settings on record: at 1 µM.
The target of experiment [9] is Serine/threonine-protein kinase MARK2 (Homo sapiens) (UniProt Q7KZI7). The experiment is described as follows: Selectivity interaction (ActivX KiNativ screen (kinase selectivity in THP-1 cell lysates)) EUB0000639a MARK2. The experiment is classed as subcellular. The settings on record: lysate, at 0.04 µM.
The target in experiment [10] is MAP kinase-activated protein kinase 3 (Homo sapiens) (UniProt Q16644). The experiment is described as follows: Selectivity interaction (Kinase panel (Invitrogen)) EUB0000639a MAPKAPK3. The following applies: at 200 nM.
Experiment [11] addresses Serine/threonine-protein kinase SMG1 (Homo sapiens) (UniProt Q96Q15). Kind of experiment: Selectivity interaction (ActivX KiNativ screen (kinase selectivity in THP-1 cell lysates)) EUB0000639a SMG1. The experiment is classed as subcellular. The following applies: lysate, at 5 µM.
Experiment [12] addresses T1, Dual specificity mitogen-activated protein kinase kinase 3 (Homo sapiens). Kind of experiment: Selectivity interaction (KinomeScan (DiscoverX)) EUB0001049a MAP2K3. The following applies: at 1 µM.
Experiment [13] concerns the target Fibroblast growth factor receptor 2 (Homo sapiens) (UniProt P21802). The experiment is described as follows: Selectivity interaction (ProQinase) EUB0000171b FGFR2.

Sequence of Fibroblast growth factor receptor 2 (Homo sapiens) (P21802 22-821 limits assumed): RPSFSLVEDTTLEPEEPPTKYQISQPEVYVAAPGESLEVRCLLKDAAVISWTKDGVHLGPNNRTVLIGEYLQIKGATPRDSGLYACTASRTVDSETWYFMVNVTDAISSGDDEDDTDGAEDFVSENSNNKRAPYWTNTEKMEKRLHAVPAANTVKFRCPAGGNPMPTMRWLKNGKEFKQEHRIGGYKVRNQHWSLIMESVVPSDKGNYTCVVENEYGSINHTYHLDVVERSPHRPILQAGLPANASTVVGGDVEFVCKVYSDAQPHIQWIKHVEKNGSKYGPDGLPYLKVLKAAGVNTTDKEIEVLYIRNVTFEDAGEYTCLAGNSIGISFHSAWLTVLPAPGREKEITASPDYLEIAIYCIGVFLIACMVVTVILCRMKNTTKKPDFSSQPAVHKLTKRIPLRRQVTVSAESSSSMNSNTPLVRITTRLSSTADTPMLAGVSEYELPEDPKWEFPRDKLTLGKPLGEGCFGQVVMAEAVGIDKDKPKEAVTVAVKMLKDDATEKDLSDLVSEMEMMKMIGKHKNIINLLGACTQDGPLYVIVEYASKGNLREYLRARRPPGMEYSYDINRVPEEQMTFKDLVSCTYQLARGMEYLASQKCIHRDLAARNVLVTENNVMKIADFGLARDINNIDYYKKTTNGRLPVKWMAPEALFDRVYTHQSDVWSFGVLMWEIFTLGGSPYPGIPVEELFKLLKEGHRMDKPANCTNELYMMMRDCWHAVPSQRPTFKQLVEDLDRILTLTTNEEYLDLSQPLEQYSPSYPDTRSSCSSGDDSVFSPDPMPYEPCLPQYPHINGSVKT
Sequence of Serine/threonine-protein kinase SMG1 (Homo sapiens) (Q96Q15 whole entry): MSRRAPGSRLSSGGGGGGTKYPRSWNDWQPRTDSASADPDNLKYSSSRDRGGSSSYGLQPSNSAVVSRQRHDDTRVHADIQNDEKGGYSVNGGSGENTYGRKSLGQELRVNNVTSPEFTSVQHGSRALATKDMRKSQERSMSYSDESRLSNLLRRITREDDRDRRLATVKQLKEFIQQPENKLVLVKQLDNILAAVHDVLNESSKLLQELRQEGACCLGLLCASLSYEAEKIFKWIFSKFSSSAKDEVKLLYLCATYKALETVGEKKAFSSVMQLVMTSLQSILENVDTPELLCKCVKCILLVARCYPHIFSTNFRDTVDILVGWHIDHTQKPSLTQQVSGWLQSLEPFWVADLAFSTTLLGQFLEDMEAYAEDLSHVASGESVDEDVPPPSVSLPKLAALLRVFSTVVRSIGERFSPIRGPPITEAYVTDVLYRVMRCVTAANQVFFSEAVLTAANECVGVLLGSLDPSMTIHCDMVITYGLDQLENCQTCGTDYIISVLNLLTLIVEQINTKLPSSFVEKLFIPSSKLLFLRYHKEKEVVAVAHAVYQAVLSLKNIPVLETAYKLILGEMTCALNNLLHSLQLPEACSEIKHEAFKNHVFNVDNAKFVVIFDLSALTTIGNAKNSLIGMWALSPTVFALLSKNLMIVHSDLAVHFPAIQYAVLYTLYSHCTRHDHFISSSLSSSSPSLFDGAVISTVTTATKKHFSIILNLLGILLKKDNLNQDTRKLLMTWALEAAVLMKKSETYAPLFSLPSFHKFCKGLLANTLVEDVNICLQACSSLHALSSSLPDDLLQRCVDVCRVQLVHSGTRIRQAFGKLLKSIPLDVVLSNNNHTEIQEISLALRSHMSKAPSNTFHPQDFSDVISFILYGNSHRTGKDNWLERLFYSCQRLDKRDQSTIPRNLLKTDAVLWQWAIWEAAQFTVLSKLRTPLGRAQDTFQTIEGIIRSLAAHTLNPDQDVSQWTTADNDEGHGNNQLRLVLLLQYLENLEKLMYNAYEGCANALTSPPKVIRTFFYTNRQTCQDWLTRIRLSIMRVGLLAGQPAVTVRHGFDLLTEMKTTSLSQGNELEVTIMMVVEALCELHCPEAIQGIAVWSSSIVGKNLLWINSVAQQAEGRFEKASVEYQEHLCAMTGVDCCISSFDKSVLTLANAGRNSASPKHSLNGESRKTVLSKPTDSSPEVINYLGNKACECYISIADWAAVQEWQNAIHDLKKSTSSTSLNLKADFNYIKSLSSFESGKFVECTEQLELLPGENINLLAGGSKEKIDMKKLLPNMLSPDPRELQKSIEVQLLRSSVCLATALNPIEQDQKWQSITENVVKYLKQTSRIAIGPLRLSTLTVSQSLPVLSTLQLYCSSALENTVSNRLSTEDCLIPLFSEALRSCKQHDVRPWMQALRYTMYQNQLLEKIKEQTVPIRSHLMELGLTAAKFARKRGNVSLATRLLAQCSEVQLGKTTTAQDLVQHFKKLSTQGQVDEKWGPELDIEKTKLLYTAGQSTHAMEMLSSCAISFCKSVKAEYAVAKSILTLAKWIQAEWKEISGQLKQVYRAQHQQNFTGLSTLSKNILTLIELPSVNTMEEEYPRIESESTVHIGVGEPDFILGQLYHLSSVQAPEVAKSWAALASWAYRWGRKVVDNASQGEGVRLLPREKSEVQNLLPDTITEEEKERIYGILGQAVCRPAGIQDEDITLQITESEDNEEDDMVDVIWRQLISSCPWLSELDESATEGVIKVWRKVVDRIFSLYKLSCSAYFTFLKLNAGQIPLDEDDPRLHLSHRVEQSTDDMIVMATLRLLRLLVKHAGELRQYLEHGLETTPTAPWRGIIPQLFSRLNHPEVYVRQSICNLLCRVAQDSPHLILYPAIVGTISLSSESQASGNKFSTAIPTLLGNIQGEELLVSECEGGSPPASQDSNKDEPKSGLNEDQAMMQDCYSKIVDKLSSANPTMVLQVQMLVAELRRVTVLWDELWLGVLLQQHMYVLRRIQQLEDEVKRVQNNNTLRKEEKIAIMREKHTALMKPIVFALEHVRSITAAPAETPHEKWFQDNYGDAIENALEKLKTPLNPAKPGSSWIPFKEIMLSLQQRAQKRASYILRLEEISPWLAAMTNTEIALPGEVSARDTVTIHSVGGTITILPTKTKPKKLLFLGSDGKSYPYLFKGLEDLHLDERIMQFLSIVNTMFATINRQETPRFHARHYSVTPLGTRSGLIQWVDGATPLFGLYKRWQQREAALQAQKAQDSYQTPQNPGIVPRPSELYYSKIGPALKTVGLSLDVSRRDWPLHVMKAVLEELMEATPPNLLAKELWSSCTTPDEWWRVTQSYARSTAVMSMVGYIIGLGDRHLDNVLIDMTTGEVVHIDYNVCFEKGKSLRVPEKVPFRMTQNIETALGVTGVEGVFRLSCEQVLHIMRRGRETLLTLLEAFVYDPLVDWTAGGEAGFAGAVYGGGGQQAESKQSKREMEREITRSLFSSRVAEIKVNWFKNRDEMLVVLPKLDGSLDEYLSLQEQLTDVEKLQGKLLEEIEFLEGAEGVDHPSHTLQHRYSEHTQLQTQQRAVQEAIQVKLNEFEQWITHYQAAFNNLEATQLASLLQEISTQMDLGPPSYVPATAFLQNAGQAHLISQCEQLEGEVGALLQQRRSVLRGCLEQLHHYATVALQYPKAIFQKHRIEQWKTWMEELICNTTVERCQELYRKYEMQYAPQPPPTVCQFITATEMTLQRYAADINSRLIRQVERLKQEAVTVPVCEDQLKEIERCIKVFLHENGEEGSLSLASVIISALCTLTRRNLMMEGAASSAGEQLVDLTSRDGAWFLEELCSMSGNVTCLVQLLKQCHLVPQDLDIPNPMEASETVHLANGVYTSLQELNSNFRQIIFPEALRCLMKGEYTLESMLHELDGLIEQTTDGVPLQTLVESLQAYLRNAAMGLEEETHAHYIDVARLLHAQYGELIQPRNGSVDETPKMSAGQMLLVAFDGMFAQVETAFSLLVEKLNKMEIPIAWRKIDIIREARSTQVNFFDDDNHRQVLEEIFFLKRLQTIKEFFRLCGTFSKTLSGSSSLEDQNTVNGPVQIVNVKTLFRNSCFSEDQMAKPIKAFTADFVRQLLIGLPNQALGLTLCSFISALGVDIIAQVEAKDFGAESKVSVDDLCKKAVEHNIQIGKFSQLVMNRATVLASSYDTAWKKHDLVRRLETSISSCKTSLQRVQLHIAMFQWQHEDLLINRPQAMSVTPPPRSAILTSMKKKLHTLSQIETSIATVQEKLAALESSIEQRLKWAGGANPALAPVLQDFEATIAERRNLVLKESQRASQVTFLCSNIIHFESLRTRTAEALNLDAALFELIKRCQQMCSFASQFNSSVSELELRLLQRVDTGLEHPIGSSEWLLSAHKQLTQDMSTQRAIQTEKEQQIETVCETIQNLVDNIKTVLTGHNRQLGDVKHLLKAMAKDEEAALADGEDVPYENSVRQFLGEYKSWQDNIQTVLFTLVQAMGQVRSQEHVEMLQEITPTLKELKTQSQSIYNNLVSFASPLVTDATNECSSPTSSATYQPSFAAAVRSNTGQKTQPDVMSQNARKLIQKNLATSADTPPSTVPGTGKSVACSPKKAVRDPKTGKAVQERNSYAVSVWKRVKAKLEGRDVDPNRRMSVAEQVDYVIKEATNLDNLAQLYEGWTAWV
Sequence of Receptor-interacting serine/threonine-protein kinase 2 (O43353 whole entry): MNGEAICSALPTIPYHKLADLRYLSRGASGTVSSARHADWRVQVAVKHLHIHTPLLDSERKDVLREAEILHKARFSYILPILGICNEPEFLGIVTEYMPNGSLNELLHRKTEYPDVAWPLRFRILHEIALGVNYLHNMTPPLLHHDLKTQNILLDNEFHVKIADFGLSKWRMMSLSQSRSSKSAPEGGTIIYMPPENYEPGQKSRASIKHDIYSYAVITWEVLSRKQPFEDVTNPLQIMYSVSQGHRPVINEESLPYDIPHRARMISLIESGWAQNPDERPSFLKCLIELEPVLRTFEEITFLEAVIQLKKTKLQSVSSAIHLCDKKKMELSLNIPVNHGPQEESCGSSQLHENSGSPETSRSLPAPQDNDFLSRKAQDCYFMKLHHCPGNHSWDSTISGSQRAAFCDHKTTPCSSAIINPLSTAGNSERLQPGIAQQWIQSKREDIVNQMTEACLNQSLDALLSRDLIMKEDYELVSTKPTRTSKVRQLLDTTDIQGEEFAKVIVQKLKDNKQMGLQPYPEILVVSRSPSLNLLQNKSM

Regarding `Cn1cc(-n2cnc3c(NCc4nc5cc(Cl)c(Cl)cc5[nH]4)nc(N4CCOCC4)nc32)cn1`, in experiment [1], the % of inhibition was -63.6%.

For the compound `CN(C)C/C=C/C(=O)Nc1ccc(C(=O)N2CCCC(Nc3ncc(Cl)c(-c4c[nH]c5ccccc45)n3)C2)cc1` (centres undefined), the % of control in experiment [2] worked out at 91%.

`CNC(=O)Nc1ccc(-c2nc(N3CC4CCC(C3)O4)c3cnn(C4CCC5(CC4)OCCO5)c3n2)cc1` displayed a % of control in experiment [3] of 84%. In the case of `Cc1cc([C@@H](C)Nc2ccccc2C(=O)O)c2nc(N3CCOCC3)cc(=O)n2c1` [AZD-6482], the % of control in experiment [4] is 27%; in [5], 94%. `O=C(NOC[C@H](O)CO)c1ccc(F)c(F)c1Nc1ccc(I)cc1F` gave a % of control in experiment [6] of 100%. `CN(C)CCOc1ccc(-c2nc(-c3ccncc3)c(-c3ccc4c(c3)CC/C4=N\O)[nH]2)cc1` displayed a % of control in [7] of 100%.

For `N#Cc1cccc(-c2c[nH]c3ncnc(N4CCOCC4)c23)c1`, the % of control in [8] is 84%.

On to `CC[C@@H]1[C@H](F)C(=O)N[C@@H]1COc1nccc2cc(C(N)=O)c(OC)cc12` [ZIMLOVISERTIB], for which the % of inhibition in experiment [9] is 8.3%; in experiment [10], 3.83%; in [11] it was -11.2%.

For the compound `COc1cc(Nc2nc(C)cc(-c3cnn4nc(OC)ccc34)n2)cc(C(F)(F)F)c1`, in experiment [12], the % of control came to 86%. In the case of `C=CC(=O)Nc1cccc(C(=O)Nc2ccc(Nc3cc(-c4[nH]c(SC)nc4C)ccn3)cc2)c1`, the % of control stood at 105% in experiment [13] (at 1 µM) and 87% in [13] (at 5 µM).
